From ChEMBL document CHEMBL5356959, “Bifunctional backbone modified squaramide dipeptides as amyloid beta (Aβ) aggregation inhibitors” (Bioorg Med Chem, 2024) come the findings set out here.

One series deals with N2a. The experiment in a line: Cytotoxicity against mouse Neuro2a cells assessed as reduction in cell viability at 50 uM incubated for 48 hrs by Alamar blue assay. Type of series: toxicity, cell-based. Background: Alamar Blue is a resazurin reagent that responds to reducing activity.
Series [1] concerns the target T1, Amyloid-beta precursor protein (Homo sapiens, UniProt P05067). The experiment in a line: Inhibition of amyloid-beta (unknown origin) aggregation at 25 uM at 1:10 compound:amyloidbeta ratio incubated for 24 hrs by ThT fluorescence assay.
Series [2] addresses T1, Amyloid-beta precursor protein. Description: Inhibition of amyloid-beta (unknown origin) aggregation at 1:10 compound:amyloidbeta ratio incubated for 24 hrs by ThT fluorescence assay.
Series [3] is described as follows: Metal chelating activity assessed as compound-Zn(II) complex formation by measuring hyperchromic shift incubated for 30 mins by UV-Visible spectrophotometric analysis.
Series [4] in a line: Metal chelating activity assessed as compound-Fe(III) complex formation by measuring hyperchromic shift incubated for 30 mins by UV-Visible spectrophotometric analysis.
A short description of series [5]: Metal chelating activity assessed as compound-Cu(II) complex formation by measuring hyperchromic shift incubated for 30 mins by UV-Visible spectrophotometric analysis.
A short description of series [6]: Metal chelating activity assessed as compound-Cu(II) complex formation by measuring hyperchromic shift at 1:1 molar ratio incubated for 30 mins by UV-Visible spectrophotometric analysis.
Series [7] can be described thus: Competitive binding affinity to Fe(III) assessed as metal chelating activity by measuring compound-Fe(III) complex formation incubated for 30 mins in the presence of MnCl2 by UV-Visible spectrophotometric analysis.
Series [8] is described as follows: Competitive binding affinity to Zn(II) assessed as metal chelating activity by measuring compound-Zn(II) complex formation incubated for 30 mins in the presence of MnCl2 by UV-vis spectrophotometric analysis.
The target of series [9] is T1, Amyloid-beta precursor protein. Description: Binding affinity to amyloid-beta (unknown origin) in Tris-HCL buffer assessed as conformational change at 10 uM at 1:1 molar ratio incubated for 24 hrs by circular dichroism analysis. For orientation: CD spectra are sensitive to the conformation of chiral molecules.
Series [10] can be described thus: Competitive binding affinity to Cu(II) assessed as metal chelating activity by measuring compound-Cu(II) complex formation incubated for 30 mins in the presence of MgSO4.7H2O by UV-vis spectrophotometric analysis.
A short description of series [11]: Competitive binding affinity to Cu(II) assessed as metal chelating activity by measuring compound-Cu(II) complex formation incubated for 30 mins in the presence of MnCl2 by UV-vis spectrophotometric analysis.
Series [12] in a line: Competitive binding affinity to Zn(II) assessed as metal chelating activity by measuring compound-Zn(II) complex formation incubated for 30 mins in the presence of CaCl2 by UV-vis spectrophotometric analysis.
A short description of series [13]: Antioxidant activity assessed as DPPH radical scavenging activity at 10 uM incubated under dark condition for 30 mins by absorbance based plate reader analysis. Type of series: functional. On the technique in general: The DPPH test is a chemical assay of radical scavenging.
The nature of series [14]: Competitive binding affinity to Zn(II) assessed as metal chelating activity by measuring compound-Zn(II) complex formation incubated for 30 mins in the presence of FeCl2 by UV-vis spectrophotometric analysis.
A short description of series [15]: Competitive binding affinity to Fe(III) assessed as metal chelating activity by measuring compound-Fe(III) complex formation incubated for 30 mins in the presence of FeCl2 by UV-Visible spectrophotometric analysis.
A short description of series [16]: Competitive binding affinity to Fe(III) assessed as metal chelating activity by measuring compound-Fe(III) complex formation incubated for 30 mins in the presence of copper by UV-Visible spectrophotometric analysis.
Series [17] is described as follows: Competitive binding affinity to Cu(II) assessed as metal chelating activity by measuring compound-Cu(II) complex formation incubated for 30 mins in the presence of ZnSO4.7H2O by UV-vis spectrophotometric analysis.
A short description of series [18]: Competitive binding affinity to Fe(III) assessed as metal chelating activity by measuring compound-Fe(III) complex formation incubated for 30 mins in the presence of zinc by UV-Visible spectrophotometric analysis.
A short description of series [19]: Competitive binding affinity to Zn(II) assessed as metal chelating activity by measuring compound-Zn(II) complex formation incubated for 30 mins in the presence of MgSO4.7H2O by UV-vis spectrophotometric analysis.
Series [20] is described as follows: Competitive binding affinity to Zn(II) assessed as metal chelating activity by measuring compound-Zn(II) complex formation incubated for 30 mins in the presence of copper by UV-vis spectrophotometric analysis.
Series [21] is described as follows: Competitive binding affinity to Cu(II) assessed as metal chelating activity by measuring compound-Cu(II) complex formation incubated for 30 mins in the presence of CaCl2 by UV-vis spectrophotometric analysis.
Series [22] can be described thus: Competitive binding affinity to Zn(II) assessed as metal chelating activity by measuring compound-Zn(II) complex formation incubated for 30 mins in the presence of NiCl2 by UV-vis spectrophotometric analysis.
A short description of series [23]: Competitive binding affinity to Cu(II) assessed as metal chelating activity by measuring compound-Cu(II) complex formation incubated for 30 mins in the presence of NiCl2 by UV-vis spectrophotometric analysis.
A short description of series [24]: Competitive binding affinity to Fe(III) assessed as metal chelating activity by measuring compound-Fe(III) complex formation incubated for 30 mins in the presence of MgSO4.7H2O by UV-Visible spectrophotometric analysis.
A short description of series [25]: Metal chelating activity assessed as compound-Fe(III) complex formation by measuring hyperchromic shift at 1:1 molar ratio incubated for 30 mins by UV-Visible spectrophotometric analysis.
Series [26] can be described thus: Metal chelating activity assessed as compound-Zn(II) complex formation by measuring hyperchromic shift at 1:1 molar ratio incubated for 30 mins by UV-Visible spectrophotometric analysis.
Series [27] is described as follows: Competitive binding affinity to Fe(III) assessed as metal chelating activity by measuring compound-Fe(III) complex formation incubated for 30 mins in the presence of CaCl2 by UV-Visible spectrophotometric analysis.
Series [28] has as its target T1, Amyloid-beta precursor protein. Description: Inhibition of Cu(II)-induced amyloid-beta (unknown origin) aggregation assessed as disaggregation at 10 uM preincubated with CuSO4.5H2O for 30 mins followed by compound addition and measured after 24 hrs by ThT fluorescence assay.
Series [29] is described as follows: Competitive binding affinity to Cu(II) assessed as metal chelating activity by measuring compound-Cu(II) complex formation incubated for 30 mins in the presence of FeCl2 by UV-vis spectrophotometric analysis.
Series [30] can be described thus: Competitive binding affinity to Fe(III) assessed as metal chelating activity by measuring compound-Fe(III) complex formation incubated for 30 mins in the presence of NiCl2 by UV-Visible spectrophotometric analysis.

In general, IC50 refers to the concentration that gives 50% inhibition.

Activity calls are given as the source filed them. No cut-off for these calls is given here.

T1 sequence (P05067 whole entry): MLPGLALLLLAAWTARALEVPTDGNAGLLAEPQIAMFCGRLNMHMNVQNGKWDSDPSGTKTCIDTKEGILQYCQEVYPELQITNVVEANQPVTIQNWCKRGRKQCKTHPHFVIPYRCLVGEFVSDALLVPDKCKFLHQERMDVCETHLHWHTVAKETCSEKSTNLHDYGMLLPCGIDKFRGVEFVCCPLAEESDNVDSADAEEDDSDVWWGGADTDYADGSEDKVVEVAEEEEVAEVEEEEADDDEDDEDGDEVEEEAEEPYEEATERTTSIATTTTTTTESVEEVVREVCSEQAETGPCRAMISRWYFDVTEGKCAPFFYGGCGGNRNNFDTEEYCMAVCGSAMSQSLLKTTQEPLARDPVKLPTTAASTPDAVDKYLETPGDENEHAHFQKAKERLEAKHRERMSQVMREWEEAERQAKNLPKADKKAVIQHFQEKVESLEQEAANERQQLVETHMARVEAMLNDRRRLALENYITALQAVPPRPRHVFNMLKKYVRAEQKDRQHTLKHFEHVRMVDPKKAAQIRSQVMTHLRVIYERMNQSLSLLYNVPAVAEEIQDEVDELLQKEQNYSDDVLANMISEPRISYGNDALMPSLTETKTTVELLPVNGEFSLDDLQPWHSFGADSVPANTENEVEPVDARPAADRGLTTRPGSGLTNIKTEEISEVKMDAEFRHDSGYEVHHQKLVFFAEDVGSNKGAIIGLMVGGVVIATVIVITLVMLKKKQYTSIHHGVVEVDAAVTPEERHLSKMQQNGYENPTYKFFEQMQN

For `CC(C)(C)OC(=O)N[C@H](CNc1c(N[C@@H](CCC(=O)O)C(=O)O)c(=O)c1=O)Cc1ccccc1`, the Activity result with N2a is “Non-Toxic”.

In the case of `CC(C)(C)OC(=O)N[C@H](CNc1c(NCC(=O)O)c(=O)c1=O)Cc1ccccc1`, the Activity result in the series on N2a is “Non-Toxic”.

On to `CSCC[C@H](Nc1c(NC[C@H](Cc2ccccc2)NC(=O)OC(C)(C)C)c(=O)c1=O)C(=O)O`, for which the Activity entry with N2a is reported as “Non-Toxic”.

Regarding `C[C@H](Nc1c(NC[C@H](Cc2ccccc2)NC(=O)OC(C)(C)C)c(=O)c1=O)C(=O)O`, the Activity result in the series with N2a is given as “Non-Toxic”.

Consider `CC(C)(C)OC(=O)N[C@H](CNc1c(N[C@@H](CC(N)=O)C(=O)O)c(=O)c1=O)Cc1ccccc1`, for which the inhibition entry in series [1] was “Active”. In addition, the 50% inhibitory concentration (IC50) in series [2] was found to be 17.5 µM. Besides, the Activity result in the series with N2a is “Non-Toxic”.

As for `CC(C)(C)OC(=O)N[C@H](CNc1c(N[C@@H](Cc2c[nH]c3ccccc23)C(=O)O)c(=O)c1=O)Cc1ccccc1`, in the series with N2a, the Activity result is “Non-Toxic”.

As to `COc1c(OC)c(=O)c1=O`, the outcome in series [3], in series [4] and in series [5] was Active.

For `CC(C)(C)OC(=O)N[C@H](CNc1c(N[C@@H](Cc2ccccc2)C(=O)O)c(=O)c1=O)Cc1ccccc1`, the inhibition entry in series [1] was “Active”. Besides, in series [2], the 50% inhibitory concentration (IC50) was found to be 14.6 µM. Also, in the series on N2a, the Activity entry is reported as “Non-Toxic”.

In the case of `CC(C)(C)OC(=O)N[C@H](CNc1c(N[C@@H](CS)C(=O)O)c(=O)c1=O)Cc1ccccc1`, the Activity result in the series on N2a is reported as “Non-Toxic”.

As to `CC[C@@H](C)[C@H](Nc1c(NC[C@H](Cc2ccccc2)NC(=O)OC(C)(C)C)c(=O)c1=O)C(=O)O`, the Activity entry in the series on N2a is listed as “Non-Toxic”.

`CC(C)C[C@H](Nc1c(NC[C@H](Cc2ccccc2)NC(=O)OC(C)(C)C)c(=O)c1=O)C(=O)O`: in the series with N2a, the Activity entry is on record as “Non-Toxic”.

In the case of `C[C@H](O)[C@H](Nc1c(NC[C@H](Cc2ccccc2)NC(=O)OC(C)(C)C)c(=O)c1=O)C(=O)O`, the outcome in [6], in series [7], in series [8], in series [9], in series [10] and in series [11] was Active. Also, the outcome in series [12], in [13], in [14], in series [15], in series [16] and in [17] was Active. The outcome in [18], in series [19], in series [20], in series [21], in series [22] and in [23] was Active. Also, the result in series [24], in [25], in [26], in [27], in series [29] and in [30] was Active. Moreover, the inhibition result in [1] and in [28] was “Active” each time. The IC50 in [2] was 8.08 µM. For the same compound, the Activity entry with N2a is listed as “Non-Toxic”.

Consider `CC(C)(C)OC(=O)N[C@H](CN)Cc1ccccc1`, for which the outcome in [3], in [4] and in [5] was inactive.

For the compound `CC(C)(C)OC(=O)N[C@H](CNc1c(N[C@@H](CCCNC(=N)N)C(=O)O)c(=O)c1=O)Cc1ccccc1`, in the series on N2a, the Activity entry was “Non-Toxic”.

`CC(C)(C)OC(=O)N[C@H](CNc1c(N2CCC[C@H]2C(=O)O)c(=O)c1=O)Cc1ccccc1`: the Activity entry in the series with N2a was “Non-Toxic”.

Take `CC(C)(C)OC(=O)N[C@H](CNc1c(N[C@@H](Cc2c[nH]cn2)C(=O)O)c(=O)c1=O)Cc1ccccc1`: the Activity entry in the series with N2a is recorded as “Non-Toxic”.

As to `CC(C)(C)OC(=O)N[C@H](CNc1c(N[C@@H](CO)C(=O)O)c(=O)c1=O)Cc1ccccc1`, in the series with N2a, the Activity entry is reported as “Non-Toxic”.

In the case of `COc1c(NC[C@H](Cc2ccccc2)NC(=O)OC(C)(C)C)c(=O)c1=O`, the result in series [3], in series [4] and in [5] was Active.

As for `CC(C)(C)OC(=O)N[C@H](CNc1c(N[C@@H](CCC(N)=O)C(=O)O)c(=O)c1=O)Cc1ccccc1`, the Activity result in the series with N2a is “Non-Toxic”.

With `CC(C)[C@H](Nc1c(NC[C@H](Cc2ccccc2)NC(=O)OC(C)(C)C)c(=O)c1=O)C(=O)O`, the result in series [6], in series [10], in series [11], in series [17], in series [21] and in [23] was inactive. Moreover, the outcome in series [29] was inactive. Further, the outcome in [8], in [12], in series [13], in [14], in [19] and in series [20] was Active. In addition, the result in series [22] was Active. Further, the inhibition entry in series [1] and in series [28] was “Active” in each case. The IC50 in series [2] came to 7.71 µM. Also, in the series on N2a, the Activity entry was “Non-Toxic”.

Turning to `CC(C)(C)OC(=O)N[C@H](CNc1c(N[C@@H](Cc2ccc(O)cc2)C(=O)O)c(=O)c1=O)Cc1ccccc1`, the Activity entry in the series on N2a is “Non-Toxic”.

Consider `CC(C)(C)OC(=O)N[C@H](CNc1c(N[C@@H](CCCCN)C(=O)O)c(=O)c1=O)Cc1ccccc1`, for which the Activity entry in the series with N2a is recorded as “Non-Toxic”.

For the compound `CC(C)(C)OC(=O)N[C@H](CNc1c(N[C@@H](CC(=O)O)C(=O)O)c(=O)c1=O)Cc1ccccc1`, the Activity entry in the series with N2a was “Non-Toxic”.
